Test [1] relates to RNA Polymerase II Serine 5 phosphorylation (Rpb1 CTD, downstream substrate of CDK7) in A549 cells. Kind of test: Imaging-based cellular RNA PolII Ser5 phosphorylation assay in A549 cells. The test is classed as cell-based, human. As to conditions: wild-type CDK7, RNA PolII Ser5 phosphorylation, averaged over all measurements; for IC50: Homo sapiens, A549, A549 cells, read-out: CDK7_A549 Wild-type CDK7 (pIC50) (converted). In outline:
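A549 cells, seeded 1000/well in DMEM with 1% FBS and cultured 20 h, were treated with compound for 3 h at 37 °C. Ser5-phospho-Rpb1 CTD detected by immunofluorescence imaging after fixation and methanol permeabilization; IC50 from curve fit normalized to DMSO and 10 μM reference-compound controls.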

Test [2] has as its system RNA Polymerase II Serine 5 phosphorylation in A549 cells overexpressing CDK7-mutant (C312S). Kind of test: Imaging-based cellular RNA PolII Ser5 phosphorylation assay in A549 cells overexpressing CDK7-mutant (C312S). In kind it is cell-based, human. As to conditions: RNA PolII Ser5 phosphorylation, averaged over all measurements; for IC50: Homo sapiens, A549, A549 cells overexpressing CDK7-mutant (C312S), read-out: CDK7_A549 mutant hCDK7(pIC50) (converted). In outline:
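A549 cells overexpressing CDK7 C312S (with endogenous wild-type CDK7) were treated with compound for 3 h at 37 °C in 1% FBS medium. Phospho-Rpb1 CTD Ser5 was immunostained after fixation and imaged. IC50 came from curve fit of % control, normalised to DMSO and 10 μM reference-compound controls.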

Test [3] has as its target CDK7/cyclinH/MAT1 trimeric complex (Homo sapiens, UniProt P50613). Kind of test: In vitro CDK7 assay, potency of irreversible covalent inhibitors (kinact/KI), coupled PK/LDH ADP readout at 340 nm.
Where [4] appears, read: CDK7 (KI(μM)), […], 1 mM ATP, room temperature, averaged values over all measurements.
The mark [5] stands for this setting: read-out: CDK7 (kinact, s^−1), kinact = maximal rate of inactivation, 1 mM ATP, room temperature, averaged values over all measurements.
Setting [6] is: read-out: CDK7 (kinact/KI, M^−1*s^−1), potency of irreversible covalent inhibitors, 1 mM ATP, room temperature, averaged values over all measurements.
The mark [7] stands for this setting: CDK7 (20 nM enz.) (KI, μM), 20 nM enzyme.
Where [8] appears, read: read-out: CDK7 (20 nM enz.) (kinact, s^−1), 20 nM enzyme.
Setting [9] is: read-out: CDK7 (20 nM enz.) (kinact/KI, M^−1*s^−1), 20 nM enzyme.
[10] abbreviates: read-out: CDK7 (20 nM enz.) (kobs/[I], M^−1*s^−1), 20 nM enzyme.

The record followed here is US20240254138A1, “TRICYCLIC PYRIMIDINES AS CYCLIN-DEPENDENT KINASE 7 (CDK7) INHIBITORS” (JANSSEN PHARMACEUTICA NV, priority 2021, published 2024).

Like-named read-outs stand apart in the source and are kept apart here.

Sequence of CDK7/cyclinH/MAT1 trimeric complex (P50613 whole entry): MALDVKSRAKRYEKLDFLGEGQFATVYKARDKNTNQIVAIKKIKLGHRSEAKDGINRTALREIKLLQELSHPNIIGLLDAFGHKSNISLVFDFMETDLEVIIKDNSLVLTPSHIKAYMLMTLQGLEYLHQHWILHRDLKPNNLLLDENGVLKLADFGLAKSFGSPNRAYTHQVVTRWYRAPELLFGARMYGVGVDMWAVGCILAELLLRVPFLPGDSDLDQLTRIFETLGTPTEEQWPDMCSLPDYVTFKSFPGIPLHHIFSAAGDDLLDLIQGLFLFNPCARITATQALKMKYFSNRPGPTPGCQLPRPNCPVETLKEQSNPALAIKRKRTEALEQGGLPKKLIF
Sequence of CDK7/cyclinH/MAT1 trimeric complex (P51946 whole entry partner): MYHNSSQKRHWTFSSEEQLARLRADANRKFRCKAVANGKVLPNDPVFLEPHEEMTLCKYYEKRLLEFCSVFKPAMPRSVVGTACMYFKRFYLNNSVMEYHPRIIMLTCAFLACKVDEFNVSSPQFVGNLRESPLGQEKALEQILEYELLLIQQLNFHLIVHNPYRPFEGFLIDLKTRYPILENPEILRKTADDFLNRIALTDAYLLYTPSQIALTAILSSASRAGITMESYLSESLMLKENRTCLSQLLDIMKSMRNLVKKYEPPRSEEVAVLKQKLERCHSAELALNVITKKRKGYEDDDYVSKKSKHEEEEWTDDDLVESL
Sequence of CDK7/cyclinH/MAT1 trimeric complex (P51948 whole entry partner): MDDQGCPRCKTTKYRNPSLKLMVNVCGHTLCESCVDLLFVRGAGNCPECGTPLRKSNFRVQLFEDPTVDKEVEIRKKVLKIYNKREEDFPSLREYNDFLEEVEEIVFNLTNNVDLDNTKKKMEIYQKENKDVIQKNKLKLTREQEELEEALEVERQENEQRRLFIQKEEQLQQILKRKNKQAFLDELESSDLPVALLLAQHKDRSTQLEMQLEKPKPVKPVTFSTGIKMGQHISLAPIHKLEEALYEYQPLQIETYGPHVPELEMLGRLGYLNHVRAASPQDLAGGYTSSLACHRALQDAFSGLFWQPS

`C=CC(=O)N1CC[C@H]2CN(c3ccc4c(c3)Nc3nccc(N5CCOCC5)c3CO4)CC[C@@H]21` (racemic) [Compound 48]: the IC50 in test [1] is 1620 nM; in test [2] it was greater than 10000 nM. The same molecule yielded a Ki in test [3] (setting [4]) of 0.325 µM. Also, in test [3] (setting [5]), the kinact was 4.98e-05 s⁻¹. The kinact/KI in test [3] (setting [6]) was 153 M⁻¹ s⁻¹.
As for `C#CCCN(C)C/C=C/C(=O)N1CC(N2CCC(c3ccc4c(c3)Nc3nccc(N5CCOCC5)c3C(C)O4)CC2)C1` (racemic) [Compound 143], the IC50 was 123 nM in test [1] and greater than 10000 nM in test [2]. Further, in test [3] (setting [7]), the Ki was determined as 0.0404 µM. The kinact in test [3] (setting [8]) amounted to 6.96e-05 s⁻¹. For the same molecule, the kinact/KI in test [3] (setting [9]) was found to be 1720 M⁻¹ s⁻¹.
For `C=CC(=O)N1CC[C@@H](N2CC(c3cc(C)c4c(c3)Nc3nccc(C5CCOCC5)c3CO4)C2)[C@H](F)C1` (racemic) [Compound 206], in that order: 93.3 nM, greater than 10000 nM, 0.0443 µM, 4.45e-05 s⁻¹ and 1000 M⁻¹ s⁻¹.
For `C=CC(=O)N1CC(N2CC[C@@H](c3ccc4c(c3)Nc3nccc(N5CCOCC5)c3CO4)[C@H](O)C2)C1` (racemic) [Compound 216], in that order: 550 nM, greater than 10000 nM, 0.472 µM, 6.66e-05 s⁻¹ and 141 M⁻¹ s⁻¹.
`C=CC(=O)N1CC[C@H]2CN(c3ccc4c(c3)Nc3nccc(N5CCOCC5)c3CO4)CC[C@H]21` (relative stereo) [Compound 27]: the IC50 in test [1] was 3720 nM; in test [2], greater than 10000 nM. Besides, in test [3] (setting [6]), the kinact/KI was 28.7 M⁻¹ s⁻¹.
As for `C=CC(=O)N1CC(N2CCC(c3ccc4c(c3)Nc3nccc(N5CCOC[C@@H]5C)c3CO4)CC2)C1` (single isomer, unassigned) [Compound 32], the IC50 is 398 nM in test [1] and greater than 10000 nM in test [2]. For the same molecule, the Ki in test [3] (setting [4]) came to 0.177 µM. The kinact in test [3] (setting [5]) came to 0.000102 s⁻¹. In addition, the kinact/KI in test [3] (setting [6]) is 578 M⁻¹ s⁻¹.
As for `C=CC(=O)N1CC[C@H](N2CCC(c3ccc4c(c3)Nc3nccc(N5CCOCC5)c3CO4)CC2)C1` (single isomer, unassigned) [Compound 38], the IC50 was 158 nM in test [1] and greater than 10000 nM in test [2]. This molecule yielded a Ki in test [3] (setting [7]) of 0.0619 µM. The inactivation rate constant (kinact) in test [3] (setting [8]) was 6.91e-05 s⁻¹. Further, the kinact/KI in test [3] (setting [9]) came out at 1120 M⁻¹ s⁻¹; in test [3] (setting [6]), 744 M⁻¹ s⁻¹.
Turning to `C=CC(=O)N1CC[C@@H](N2CCC(c3ccc4c(c3)Nc3nccc(N5CCOCC5)c3CO4)CC2)C1` (single isomer, unassigned) [Compound 44], the IC50 in test [1] is less than 9.77 nM; in test [2] it was 832 nM. The values for the kinact/KI in test [3] (setting [10]) and in test [3] (setting [6]) were 1570 M⁻¹ s⁻¹ and 602 M⁻¹ s⁻¹, respectively.
As to `C=CC(=O)N1CC(N2CC[C@H](c3ccc4c(c3)Nc3nccc(N5CCOCC5)c3CO4)C(C)(C)C2)C1` (single isomer, unassigned) [Compound 67], the IC50 is 214 nM in test [1] and greater than 10000 nM in test [2]. The molecule further showed a Ki in test [3] (setting [7]) of 0.0862 µM. For the same molecule, the kinact in test [3] (setting [8]) came out at 6.48e-05 s⁻¹. Besides, the kinact/KI in test [3] (setting [9]) turned out to be 752 M⁻¹ s⁻¹.
For the molecule `C=CC(=O)N1CC(N2CC[C@@H](c3ccc4c(c3)Nc3nccc(N5CCOCC5)c3CO4)C(C)(C)C2)C1` (single isomer, unassigned) [Compound 69], the values for the IC50 in test [1] and in test [2] were 234 nM and greater than 10000 nM, respectively. Further, the kinact/KI in test [3] (setting [10]) worked out at 529 M⁻¹ s⁻¹.
For `C=CC(=O)N1CC(N2CC[C@@H](c3ccc4c(c3)Nc3nccc(N5CCOCC5)c3CO4)C[C@@H]2C)C1` (single isomer, unassigned) [Compound 74], in that order: 77.6 nM, greater than 10000 nM and 1040 M⁻¹ s⁻¹.
In the same order, the values of `C=CC(=O)N1CC(N2CC[C@H](c3ccc4c(c3)Nc3nccc(N5CCOCC5)c3CO4)C[C@H]2C)C1` (single isomer, unassigned) [Compound 76] are 79.4 nM, greater than 10000 nM and 1650 M⁻¹ s⁻¹.
For `C=CC(=O)N1CC(N2CCC(c3ccc4c(c3)Nc3nccc(N5CCOCC5)c3[C@@H](C)O4)CC2)C1` (single isomer, unassigned) [Compound 89], the IC50 in test [1] was 60.3 nM; in test [2] it was greater than 10000 nM. Further, the kinact/KI in test [3] (setting [10]) came to 923 M⁻¹ s⁻¹.
In the case of `C=CC(=O)N1CC(N2CCC(c3ccc4c(c3)Nc3nccc(N5CCOCC5)c3[C@H](C)O4)CC2)C1` (single isomer, unassigned) [Compound 92], the IC50 is 126 nM in test [1] and greater than 10000 nM in test [2]. This molecule came in with a Ki in test [3] (setting [7]) of 0.0777 µM. For the same molecule, the kinact in test [3] (setting [8]) came to 4.72e-05 s⁻¹. Further, in test [3] (setting [9]), the kinact/KI worked out at 622 M⁻¹ s⁻¹.
Turning to `C=CC(=O)N1CC(N2CCC[C@H](c3ccc4c(c3)Nc3nccc(N5CCOCC5)c3CO4)C2)C1` (single isomer, unassigned) [Compound 93], the IC50 is 447 nM in test [1] and greater than 10000 nM in test [2]. Further, the Ki in test [3] (setting [7]) was 0.0862 µM. In addition, the kinact in test [3] (setting [8]) amounted to 5.07e-05 s⁻¹. The kinact/KI in test [3] (setting [9]) was 589 M⁻¹ s⁻¹.
Take `C=CC(=O)N1CC(N2CCC(c3ccc4c(c3)Nc3nccc(C5CCOCC5)c3[C@@H](C)O4)CC2)C1` (single isomer, unassigned) [Compound 97]: the IC50 in test [1] is 66.1 nM; in test [2], greater than 10000 nM. Further, the Ki in test [3] (setting [7]) turned out to be 0.0627 µM. Further, in test [3] (setting [8]), the kinact came to 0.00011 s⁻¹. The kinact/KI amounted to 1760 M⁻¹ s⁻¹ in test [3] (setting [9]) and 1510 M⁻¹ s⁻¹ in test [3] (setting [10]).
On to `C=CC(=O)N1CC(N2CCC(c3ccc4c(c3)Nc3nccc(C5CCOCC5)c3[C@H](C)O4)CC2)C1` (single isomer, unassigned) [Compound 98], for which the IC50 in test [1] was 1260 nM; in test [2], greater than 10000 nM. Further, the Ki in test [3] (setting [7]) is 0.39 µM. In addition, the maximal inactivation rate constant (kinact) in test [3] (setting [8]) was 5.61e-05 s⁻¹. Moreover, the kinact/KI in test [3] (setting [9]) worked out at 144 M⁻¹ s⁻¹.
In the same order, the values of `C=CC(=O)N1CC(N2CCC(c3ccc4c(c3)Nc3nccc(C5CCOCC5)c3[C@H](C)O4)CC2)C1` (single isomer, unassigned) [Compound 104] are 1170 nM, greater than 10000 nM, 0.431 µM, 4.85e-05 s⁻¹ and 112 M⁻¹ s⁻¹.
For `C=CC(=O)N1CC(N2CC[C@H](c3ccc4c(c3)Nc3nccc(N5CCOCC5)c3CO4)[C@@H](F)C2)C1` (single isomer, unassigned) [Compound 109], the “CDK7_A549 Wild-type CDK7 (pIC50)” value in test [1] (A549 cells) was found to be 5.55. In addition, the “CDK7_A549 mutant hCDK7(pIC50)” value in test [2] (A549 cells overexpressing CDK7-mutant (C312S)) was less than 5. For the same molecule, in test [3] (20 nM enzyme), the “CDK7 (20 nM enz.) (kinact, s^−1)” value stood at 1.425e-05 s⁻¹ and the “CDK7 (20 nM enz.) (kinact/KI, M^−1*s^−1)” value turned out to be 5.9 M⁻¹ s⁻¹. The Ki in test [3] (read-out: CDK7 (20 nM enz.) (KI), 20 nM enzyme) was found to be 2.42 µM.
On to `C=CC(=O)N1CC(N2CCC(c3ccc4c(c3)Nc3nccc(-c5cnn(C)c5)c3[C@@H](C)O4)CC2)C1` (single isomer, unassigned) [Compound 127], for which the figures for the IC50 in test [1] and in test [2] were 27.5 nM and 8320 nM, respectively. The kinact/KI in test [3] (setting [10]) came out at 1420 M⁻¹ s⁻¹.
In the case of `C=CC(=O)N1CC[C@@H](N2CCC(c3cc(C)c4c(c3)Nc3nccc(-c5cnn(C)c5)c3CO4)CC2)C1` (single isomer, unassigned) [Compound 134], the IC50 in test [1] was 38 nM; in test [2] it was roughly 8710 nM. Moreover, the kinact/KI in test [3] (setting [10]) came out at 1530 M⁻¹ s⁻¹.
In the same order, the values of `C=CC(=O)N1CC[C@H](N2CCC(c3cc(C)c4c(c3)Nc3nccc(-c5cnn(C)c5)c3CO4)CC2)C1` (single isomer, unassigned) [Compound 138] are 28.8 nM, roughly 3720 nM and 1330 M⁻¹ s⁻¹.
For the molecule `C=CC(=O)N1CC(N2CCC[C@@H](c3ccc4c(c3)Nc3nccc(N5CCOCC5)c3CO4)C2)C1` (single isomer, unassigned) [Compound 145], the IC50 was 977 nM in test [1] and greater than 10000 nM in test [2]. The same molecule gave a Ki in test [3] (setting [7]) of 0.872 µM. For the same molecule, the kinact in test [3] (setting [8]) is 7.9e-05 s⁻¹. In addition, the kinact/KI in test [3] (setting [9]) amounted to 90.6 M⁻¹ s⁻¹.
Consider `C=CC(=O)N1CC[C@@H](N2CC(c3cc(C)c4c(c3)Nc3nccc(N5CCOCC5)c3CO4)C2)C1` (single isomer, unassigned) [Compound 149], for which the IC50 in test [1] was 50.1 nM; in test [2], greater than 10000 nM. The molecule further displayed a Ki in test [3] (setting [7]) of 0.0542 µM. In test [3] (setting [8]), the kinact was 6.66e-05 s⁻¹. The kinact/KI in test [3] (setting [9]) was 1230 M⁻¹ s⁻¹.
For `C=CC(=O)N1CC[C@H](N2CC(c3cc(C)c4c(c3)Nc3nccc(N5CCOCC5)c3CO4)C2)C1` (single isomer, unassigned) [Compound 150], in that order: 46.8 nM, 6030 nM, 0.0526 µM, 8.76e-05 s⁻¹ and 1660 M⁻¹ s⁻¹.

Broadly, the kinact is the rate constant of inactivation at saturating inhibitor.
